# Measurements from US7897565B2, “Compositions for HCV treatment” (priority 2004, dated 2011).
# Non-standard residues stand in square brackets, D forms with d. Residues, ends and D or L forms follow the SMILES beside them. ξ: configuration not given here. ξNMeBmt = C/C=C/C[C@@H](C)[C@@H](O)C(NC)C(=O)O; NMeL = CN[C@@H](CC(C)C)C(=O)O; NMeV = CN[C@H](C(=O)O)C(C)C; NMeA = CN[C@@H](C)C(=O)O; Abu = CC[C@H](N)C(=O)O; Sar = CNCC(=O)O
# How the values were obtained:
# [1] = system: HCV replicon cells clone A; format: cell-based, hepatitis C virus; details: 1 mg/ml G418
# Description: HCV replicon cells clone A are treated with various concentrations of NIM811 and BILN2061 either alone or in combination in the presence of 1 mg/ml G418.
# [2] = biological target: human recombinant cyclophilin (Homo sapiens, UniProt P62937); test: competitive ELISA for binding to cyclophilin (Binding Ratio vs cyclosporin A); details: negative value = binding stronger than cyclosporin A
# human recombinant cyclophilin, sequence (P62937 whole entry): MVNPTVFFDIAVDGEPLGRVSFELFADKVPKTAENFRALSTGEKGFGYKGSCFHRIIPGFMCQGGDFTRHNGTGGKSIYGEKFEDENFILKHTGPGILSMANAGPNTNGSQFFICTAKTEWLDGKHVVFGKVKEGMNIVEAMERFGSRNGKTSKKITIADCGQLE
# Description: A cyclosporin is considered as binding to cyclophilin if it binds to human recombinant cyclophilin at least one fifth as well as does cyclosporin A in the competitive ELISA test described by Quesniaux in Eur. J. Immunol. 1987 17:1359-1365. In this test, the cyclosporin to be tested is added during the incubation of cyclophilin with coated BSA-cyclosporin A and the concentration required to give a 50% inhibition of the control reaction without competitor is calculated (IC50). The results are expressed as the Binding Ratio (BR), which is the log to the base 10 of the ratio of the IC50 of the test compound and the IC50 in a simultaneous test of cyclosporin A itself.
# [3] = system: HCV replicon cells clone A; test: nine-day viral RNA reduction assay (quantitative RT-PCR); format: cell-based, hepatitis C virus
# Description: Analysis of the effect of combination treatment, are examined using nine-day viral RNA reduction assays. HCV replicon cells clone A are treated with compounds in DMEM supplemented with 10% FBS and 0.2% DMSO for 3, 6, or 9 days, then the total intracellular RNA is extracted, and the level of HCV RNA is determined by real-time quantitative RT-PCR (Taqman) using HCV-specific primers and probe as described above. For each treatment, the quantity of HCV RNA is normalized against the amount of total RNA extracted, which is determined in a Quant-iT assay (Molecular Probe). The log reduction of HCV RNA is calculated by comparing the level of HCV RNA in compound-treated cells to that of untreated cells.
# Balb/c spleen cells = test: Mixed Lymphocyte Reaction (MLR), activity relative to cyclosporin A; format: cell-based, mice
# Excerpt: Cyclosporins which bind strongly to cyclophilin but are not immunosuppressive have been identified. A cyclosporin is considered to be non-immunosuppressive when it has an activity in the Mixed Lymphocyte Reaction (MLR) of no more than 5%, preferably no more than 2%, that of cyclosporin A. The Mixed Lymphocyte Reaction is described by T. Meo in “Immunological Methods”, L. Lefkovits and B. Peris, Eds., Academic Press, N.Y. pp. 227-239 (1979). Spleen cells (0.5×10^6) from Balb/c mice (female, 8˜10 weeks) are co-incubated for 5 days with 0.5×10^6 irradiated (2000 rads) or mitomycin C treated spleen cells from CBA mice (female, 8˜10 weeks). The irradiated allogeneic cells induce a proliferative response in the Balb/c spleen cells which can be measured by labeled precursor incorporation into the DNA. […] The IC50 found for the test compound in the MLR is compared with that found for cyclosporin A in a parallel experiment. In addition, non-immunosuppressive cyclosporins lack the capacity of inhibiting CN and the downstream NF-AT pathway.
Compound,BR (Binding Ratio): log to the base 10 of the ratio of the IC50 of the test compound and the IC50 of cyclosporin A [2],"IR (Immunosuppressive Ratio), percentage of the activity relative to Cyclosporin A (Balb/c spleen cells) [%]",other results
COc1ccc2c(O[C@@H]3C[C@H]4C(=O)N[C@]5(C(=O)O)C[C@H]5/C=C\CCCCC[C@H](NC(=O)OC5CCCC5)C(=O)N4C3)cc(-c3csc(NC(C)C)n3)nc2c1 [BILN2061],,,treatment time after which resistant colonies start to form [1]: 2 weeks
"C/C=C/C[C@@H](C)[C@@H](O)[C@H]1C(=O)N[C@@H](CC)C(=O)N(C)CC(=O)N(C)[C@@H]([C@@H](C)CC)C(=O)N[C@@H](C(C)C)C(=O)N(C)[C@@H](CC(C)C)C(=O)N[C@@H](C)C(=O)N[C@H](C)C(=O)N(C)[C@@H](CC(C)C)C(=O)N(C)[C@@H](CC(C)C)C(=O)N(C)[C@@H](C(C)C)C(=O)N1C [NIM811, [Melle]^4-Ciclosporin]",−0.2,,"log reduction of HCV RNA ([3]; 0.5 μM NIM811 alone, 9 days of treatment): 1.2 log; log reduction of HCV RNA ([3]; 1 μM NIM811 alone, 9 days of treatment): greater than 3 log"
CC[C@@H]1NC(=O)C([C@H](O)[C@H](C)C/C=C/CO)N(C)C(=O)[C@H](C(C)C)N(C)C(=O)[C@H](CC(C)C)N(C)C(=O)[C@H](CC(C)C)N(C)C(=O)[C@@H](C)NC(=O)[C@H](C)NC(=O)[C@H](CC(C)C)N(C)C(=O)[C@H](C(C)C)NC(=O)[C@H](CC(C)C)N(C)C(=O)CN(C)C1=O (stereo partly shown) [[8′-hydroxy-MeBmt]^5-Ciclosporin],0.35,1.8,
C/C=C/C[C@@H](C)[C@@H](O)C1C(=O)N[C@@H](CC)C(=O)N(C)CC(=O)N(C)[C@@H](CC(C)C)C(=O)N[C@@H](C(C)C)C(=O)N(C)[C@@H](C)C(=O)N[C@@H](C)C(=O)N[C@H](C)C(=O)N(C)[C@@H](CC(C)C)C(=O)N(C)[C@@H](CC(C)C)C(=O)N(C)[C@@H](C(C)C)C(=O)N1C (stereo partly shown) [[MeAla]^6-Ciclosporin] (cyclo(A[dA][NMeL][NMeL][NMeV][ξNMeBmt][Abu][Sar][NMeL]V[NMeA])),−0.4,3.2,
CC=CCC(C)C(O)C1C(=O)NC(CC)C(=O)N(C)CC(=O)N(C)C(C(C)C)C(=O)NC(C(C)C)C(=O)N(C)C(CC(C)C)C(=O)NC(C)C(=O)NC(C)C(=O)N(C)C(CC(C)C)C(=O)N(C)C(CC(C)C)C(=O)N(C)C(C(C)C)C(=O)N1C (stereo not shown) [[MeVal]^4-Ciclosporin],0.1,,
C/C=C/C[C@@H](C)[C@@H](O)C1C(=O)N[C@@H](CC)C(=O)N(C)CC(=O)N(C)[C@@H](CC(C)C)C(=O)N(C)[C@@H](C(C)C)C(=O)N(C)[C@@H](CC(C)C)C(=O)N[C@@H](C)C(=O)N[C@H](C)C(=O)N(C)[C@@H](CC(C)C)C(=O)N(C)[C@@H](CC(C)C)C(=O)N(C)[C@@H](C(C)C)C(=O)N1C (stereo partly shown) [[MeVal]^5-Ciclosporin],0.4,5.3,
C/C=C/C[C@@H](C)[C@@H](O)C1C(=O)N[C@@H](CC)C(=O)N(C)CC(=O)N(C)[C@@H](CC(C)C)C(=O)N[C@@H](C(C)C)C(=O)N(C)[C@@H](CC(C)C)C(=O)N[C@@H](C)C(=O)N[C@H](C)C(=O)N(C)[C@@H](CC(C)(C)O)C(=O)N(C)[C@@H](CC(C)C)C(=O)N(C)[C@@H](C(C)C)C(=O)N1C (stereo partly shown) [[γ-hydroxy-MeLeu]^9-Ciclosporin],0.15,2.9,
IFN-α,,,"log reduction of HCV RNA ([3]; 5 U/ml IFN-α alone, 9 days): 1.2 log"
[Ethyl-Ile]^4-Ciclosporin,0.1,,
[Ethyl-Val]^4-Ciclosporin,0,,
